This is an account of results in patent US20260274832A1, “COMPOUNDS AND THEIR USE IN TREATING CANCER” (ASTRAZENECA AB, priority 2023, published 2026).

In assay [1] the target is T1, AR (AR-full length) in LNCaP cells (Homo sapiens, UniProt P10275, T878A).
T1 construct: the prostate cancer cell line LNCaP (expressing AR-full length); endogenous in cells; host or cells: LNCaP
Description: LNCaP Androgen Receptor Imaging Assay (immunofluorescence of endogenous nuclear AR). In kind it is cell-based. To be noted: 24 h incubation; for DC50: concentration giving 50% of maximum degradation of AR per curve fit, single experiment or average of two or more; for Dmax: LNCaP, maximum degradation observed, normalized as % of positive control (prior art AR PROTAC at 3 μM). As to the method:
This cell-based imaging assay uses immuno-fluorescence to measure endogenous nuclear AR staining in the prostate cancer cell line LNCaP (expressing AR-full length). The purpose of the assay is to identify compounds that regulate AR protein level according to the protocol laid out in the steps below.
(§1) All work was performed in a sterile tissue culture hood up to the point of cell fixation. LNCaP cells were cultured at 6-8×10^6 per T175 flask and split every 3-4 days. Medium: RPMI (R7638, VWR Sigma) containing 10% FCS and 1% glutamine. Cells were plated in black wall transparent bottom plates at a density of 12,000 cells (Cedex™ Cell counter, Beckmann & Coulter), 40 μL per well, using a Multidrop (ThermoFisher).
(§2) Cells were dosed with test compound diluted in DMSO using an Echo 555/655™ (Labcyte) and the final concentration of DMSO in the well was 0.3%. A neutral control (DMSO) and a positive AR degrader control at 3 μM (a prior art AR PROTAC) were included. The Echo uses acoustic technology to perform direct microplate-to-microplate transfers of DMSO compound solutions to assay plates. The system can be programmed to transfer volumes as low as 2.5 nL in multiple increments between microplates and in so doing generates a serial dilution of compound in the assay plate which is then back-filled to normalise the DMSO concentration across the dilution range. Compounds were dispensed as a 12 point dose response with indicated concentrations. The plates were incubated at 37° C./5% CO2 for 24 h and then fixed and stained as below. 40 μL of 8% paraformaldehyde solution (v/v) in phosphate buffered saline (PBS) was added on top of the media already in the well using a Multidrop to fix plates giving a final concentration of 4% PFA (v/v) for 20-30 minutes (keep in fume hood to minimise PFA exposure). After 20-30 mins, the plates were washed with 3×PBS using a BioTek washer in a fume hood. A shake out of remaining volume in the well was performed to ensure best removal of remaining PBS. At this plates could be stored in PBS after washing for at least 3 days at 4° C., if so, PBS was removed by the BioTek before continuing with the next step.
(§3) The cells were incubated with a Mouse monoclonal Anti-AR antibody AR441 (DAKO M3562) (1:1000), diluted in modified blocking buffer (PBS+1% BSA+0.1% TritonX); 15 μL/well for 2 h at RT. The plates were then washed with 3×PBS using a BioTek washer. A shake out of remaining volume in the well was performed to ensure best removal of remaining PBS. Cells were then incubated with Goat anti-mouse secondary antibody 488 (Invitrogen A11001) (1:500) and nuclear stain, DRAQ5 (Abcam Ab108410) (1:2000) diluted in modified blocking buffer for 45 mins at room temperature 15 μL/well. Plates are then washed with 3×PBS using a BioTek washer, without final aspiration, and sealed with black plate seals. Plates could be stored after staining for three days at 4° C. before read if required.
(§4) Plates are read using a Cellomics Cellinsight to measure the Androgen Receptor level in each well. The data is exported into Genedata to perform curve fitting analysis. All data are normalized as % of positive control and the BellFit method automatically determines the correct fit method based on the presence of hook effect, choosing the BellFit when there is a hook and HillFit when there is no hook. Down-regulation of AR is expressed as a DC50 value and determined by calculation of the concentration of compound that is required to give 50% of maximum degradation of AR as per the curve fit for that compound. The maximum degradation observed for each compound is expressed as Dmax. The AR degradation data for compounds is shown in the table below and may be a result from a single experiment or an average of two or more experiments.

Assay [2] concerns the target T2, AR (L702H) in LNCaP cells (Homo sapiens, UniProt P10275, L702H/T878A).
T2 construct: engineered to introduce the mutation L702H into the AR gene using CRISPR/Cas9; endogenous in cells; host or cells: LNCaP cells edited by CRISPR/Cas9 at the AR gene
Description: LNCaP Androgen Receptor L702H Imaging Assay (LNCaP cells engineered by CRISPR/Cas9). In kind it is cell-based. The settings on record: LNCaP cells with AR L702H mutation, 24 h incubation; for DC50: concentration giving 50% of maximum degradation of AR (L702H) per curve fit; for Dmax: LNCaP. As to the method: as §1, §2, §3, §4
At this stage, anti-androgen therapy is largely ineffective due to AR amplification, overexpression or point mutation. One of the point mutations observed in patient populations is L702H in the AR Ligand Binding Domain. LNCAP cells have been engineered to introduce the mutation L702H into the AR gene using CRISPR/Cas9. The previously described imaging-based AR assay will monitor nuclear AR (L702H) levels in these cells to identify compounds that regulate AR (L702H). […]

Setting [3] is: maximum degradation observed, normalized as % of positive control.

Bounds are passed on as bounds.

T2 sequence (P10275 whole entry L702H/T878A): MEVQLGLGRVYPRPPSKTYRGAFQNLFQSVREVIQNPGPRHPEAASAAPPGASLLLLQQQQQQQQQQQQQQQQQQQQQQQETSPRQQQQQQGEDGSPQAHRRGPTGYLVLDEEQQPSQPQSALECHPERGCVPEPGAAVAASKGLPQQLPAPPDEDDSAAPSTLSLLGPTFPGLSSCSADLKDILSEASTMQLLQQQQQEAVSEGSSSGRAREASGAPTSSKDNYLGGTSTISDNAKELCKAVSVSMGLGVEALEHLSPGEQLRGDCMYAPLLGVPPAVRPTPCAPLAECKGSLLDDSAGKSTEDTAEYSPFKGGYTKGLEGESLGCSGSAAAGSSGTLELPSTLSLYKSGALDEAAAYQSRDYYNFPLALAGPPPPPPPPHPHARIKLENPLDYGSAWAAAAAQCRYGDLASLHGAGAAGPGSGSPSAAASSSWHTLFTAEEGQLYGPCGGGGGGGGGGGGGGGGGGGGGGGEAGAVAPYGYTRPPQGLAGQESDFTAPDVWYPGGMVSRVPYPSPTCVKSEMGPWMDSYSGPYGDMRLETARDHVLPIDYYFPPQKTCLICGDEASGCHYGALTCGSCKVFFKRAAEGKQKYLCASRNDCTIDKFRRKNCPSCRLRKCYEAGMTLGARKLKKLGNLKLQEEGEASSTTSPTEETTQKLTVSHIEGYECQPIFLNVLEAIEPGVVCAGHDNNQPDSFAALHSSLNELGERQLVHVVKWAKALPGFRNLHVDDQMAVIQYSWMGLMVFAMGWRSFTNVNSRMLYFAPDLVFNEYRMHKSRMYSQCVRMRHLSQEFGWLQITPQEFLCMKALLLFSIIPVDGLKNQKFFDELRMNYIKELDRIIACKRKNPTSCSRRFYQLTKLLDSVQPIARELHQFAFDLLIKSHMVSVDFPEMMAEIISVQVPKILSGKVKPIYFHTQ
T2 sequence (Q96SW2 whole entry partner): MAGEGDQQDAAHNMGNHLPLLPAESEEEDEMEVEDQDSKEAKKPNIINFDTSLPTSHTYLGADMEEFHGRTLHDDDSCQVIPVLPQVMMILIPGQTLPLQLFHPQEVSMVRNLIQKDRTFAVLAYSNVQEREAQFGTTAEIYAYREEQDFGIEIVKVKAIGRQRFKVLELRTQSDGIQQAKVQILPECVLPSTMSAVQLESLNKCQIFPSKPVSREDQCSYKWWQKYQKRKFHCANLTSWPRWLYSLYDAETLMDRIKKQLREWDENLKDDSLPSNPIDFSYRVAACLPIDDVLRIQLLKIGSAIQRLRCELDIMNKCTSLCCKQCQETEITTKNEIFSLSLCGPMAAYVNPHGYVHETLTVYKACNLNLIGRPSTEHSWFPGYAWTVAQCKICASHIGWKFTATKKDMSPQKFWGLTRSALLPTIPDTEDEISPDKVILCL
T1 sequence (P10275 whole entry T878A): as the sequence (P10275 whole entry L702H/T878A) above, with H702L counted along it
T1 sequence (Q96SW2 whole entry partner): as the sequence (Q96SW2 whole entry partner) above

With `N#Cc1c[nH]c2c(N3CCC(c4ccc(N5CCC(CN6CCN(c7ccc8c(c7)CN(C7CCC(=O)NC7=O)C8=O)CC6)CC5)nn4)CC3)ccc(Cl)c12` (stereo not drawn) [Example 64, 4-Chloro-7-(4-{6-[4-({4-[2-(2,6-dioxopiperidin-3-yl)-1-oxo-2,3-dihydro-1H-isoindol-5-yl]piperazin-1-yl}methyl)piperidin-1-yl]pyridazin-3-yl}piperidin-1-yl)-1H-indole-3-carbonitrile], the results for the DC50 in assay [1] and in assay [2] were 0.005 µM and 0.008 µM, respectively. In addition, the Dmax in assay [1] came out at 83%; in assay [2] (setting [3]) it was 56%.
As to `Cn1c(=O)n(C2CCC(=O)NC2=O)c2cccc(CN3CCN(CC4CCN(c5ccc(C6CCN(c7ccc(Cl)c8c(C#N)c[nH]c78)CC6)cc5)CC4)CC3)c21` (stereo not drawn) [Example 70, 4-Chloro-7-[4-(4-{4-[(4-{[1-(2,6-dioxopiperidin-3-yl)-3-methyl-2-oxo-2,3-dihydro-1H-benzimidazol-4-yl]methyl}piperazin-1-yl)methyl]piperidin-1-yl}phenyl)piperidin-1-yl]-1H-indole-3-carbonitrile], the DC50 in assay [1] and in assay [2] was 0.009 µM in each case. Also, the Dmax came out at 97% in assay [1] and 101% in assay [2] (setting [3]).
On to `N#Cc1c[nH]c2c(N3CCC(NC(=O)c4c(F)cc(N5CCC(CN6CCC(n7ccc8c(N9CCC(=O)NC9=O)cccc87)CC6)CC5)cc4F)CC3)ccc(Cl)c12` [Example 175, N-[1-(4-Chloro-3-cyano-1H-indol-7-yl)piperidin-4-yl]-4-[4-({4-[4-(2,4-dioxo-1,3-diazinan-1-yl)-1H-indol-1-yl]piperidin-1-yl}methyl)piperidin-1-yl]-2,6-difluorobenzamide], for which the DC50 in assay [1] and in assay [2] was 0.001 µM in each case. Besides, the Dmax is 107% in assay [1] and 109% in assay [2] (setting [3]).
Take `N#Cc1c[nH]c2c(N3CCC(c4ccc(OC5CCN(CC6CCN(c7ccc8c(c7)CN(C7CCC(=O)NC7=O)C8=O)CC6)CC5)cc4)CC3)ccc(F)c12` (stereo not drawn) [Example 101, 7-[4-(4-{[1-({1-[2-(2,6-Dioxopiperidin-3-yl)-1-oxo-2,3-dihydro-1H-isoindol-5-yl]piperidin-4-yl}methyl)piperidin-4-yl]oxy}phenyl)piperidin-1-yl]-4-fluoro-1H-indole-3-carbonitrile]: the DC50 in assay [1] is 0.006 µM; in assay [2], 0.015 µM. Further, the Dmax in assay [1] turned out to be 97%; in assay [2] (setting [3]) it was 87%.
Taken in the same sequence, the figures for `N#Cc1c[nH]c2c(N3CCC(c4ccc(N5CCC(CN6CCN(c7ccc8c(c7)C(=O)N(C7CCC(=O)NC7=O)C8=O)CC6)CC5)cc4)CC3)ccc(Cl)c12` (stereo not drawn) [Example 55, 4-Chloro-7-(4-{4-[4-({4-[2-(2,6-dioxopiperidin-3-yl)-1,3-dioxo-2,3-dihydro-1H-isoindol-5-yl]piperazin-1-yl}methyl)piperidin-1-yl]phenyl}piperidin-1-yl)-1H-indole-3-carbonitrile] were 0.033 µM, 0.034 µM, 99% and 103%.
Taken in the same sequence, the figures for `COc1cc(N2CCN(CC3CCN(c4ccc(C5CCN(c6ccc(C)c7c(C#N)c[nH]c67)CC5)cc4)CC3)CC2)cc2c1C(=O)N(C1CCC(=O)NC1=O)C2` (stereo not drawn) [Example 15, 7-(4-{4-[4-({4-[2-(2,6-Dioxopiperidin-3-yl)-7-methoxy-1-oxo-2,3-dihydro-1H-isoindol-5-yl]piperazin-1-yl}methyl)piperidin-1-yl]phenyl}piperidin-1-yl)-4-methyl-1H-indole-3-carbonitrile] were 0.009 µM, 0.024 µM, 97% and 85%.
Turning to `Cc1ccc(N2CCC(c3ccc(OCCCCN4CCN(c5ccc6c(c5)C(=O)N(C5CCC(=O)NC5=O)C6=O)CC4)cc3)CC2)c2[nH]cc(C#N)c12` (stereo not drawn) [Example 56, 7-{4-[4-(4-{4-[2-(2,6-Dioxopiperidin-3-yl)-1,3-dioxo-2,3-dihydro-1H-isoindol-5-yl]piperazin-1-yl}butoxy)phenyl]piperidin-1-yl}-4-methyl-1H-indole-3-carbonitrile], the DC50 was 0.061 µM in assay [1] and 0.357 µM in assay [2]. Also, the values for the Dmax in assay [1] and in assay [2] (setting [3]) were 101% and 94%, respectively.
As for `N#Cc1c[nH]c2c(N3CCC[C@@H](c4ccc(N5CCC(CN6CCN(c7ccc(C(=O)NC8CCC(=O)NC8=O)c(F)c7)CC6)CC5)cc4)C3)ccc(Cl)c12` (stereo partly drawn) [Example 104, 4-{4-[(1-{4-[(3S)-1-(4-chloro-3-cyano-1H-indol-7-yl)piperidin-3-yl]phenyl}piperidin-4-yl)methyl]piperazin-1-yl}-N-(2,6-dioxopiperidin-3-yl)-2-fluorobenzamide], the values for the DC50 in assay [1] and in assay [2] were 0.013 µM and 0.046 µM, respectively. The values for the Dmax in assay [1] and in assay [2] (setting [3]) were 98% and 97%, respectively.
For the compound `Cn1c(=O)n(C2CCC(=O)NC2=O)c2cccc(N3CCN(CC4CCN(c5ccc(C6CCN(c7ccc(Cl)c8c(C#N)c[nH]c78)CC6)cc5)CC4)CC3)c21` (stereo not drawn) [Example 72, 4-Chloro-7-(4-{4-[4-({4-[1-(2,6-dioxopiperidin-3-yl)-3-methyl-2-oxo-2,3-dihydro-1H-benzimidazol-4-yl]piperazin-1-yl}methyl)piperidin-1-yl]phenyl}piperidin-1-yl)-1H-indole-3-carbonitrile], the DC50 was 0.014 µM in assay [1] and 0.021 µM in assay [2]. Further, the Dmax in assay [1] worked out at 91%; in assay [2] (setting [3]) it was 92%.
For the compound `Cc1ccc(C2CCCN(c3cccc(OCCCCN4CCN(c5ccc6c(c5)CN(C5CCC(=O)NC5=O)C6=O)CC4)c3)C2)c2[nH]cc(C#N)c12` (single isomer, unassigned) [Example 81, 7-{(3S*)-1-[3-(4-{4-[2-(2,6-dioxopiperidin-3-yl)-1-oxo-2,3-dihydro-1H-isoindol-5-yl]piperazin-1-yl}butoxy)phenyl]piperidin-3-yl}-4-methyl-1H-indole-3-carbonitrile], the DC50 in assay [1] is > 3 µM; in assay [2] it was 3.1 µM. Also, in assay [2] (setting [3]), the “LNCaP AR (L702H) Degradation Dmax” value was 100%.
For `Cc1ccc(N2CCN(c3ccc(OCCCCN4CCN(c5ccc6c(c5)CN(C5CCC(=O)NC5=O)C6=O)CC4)cc3)CC2)c2[nH]cc(C#N)c12` (stereo not drawn) [Example 95, 7-{4-[4-(4-{4-[2-(2,6-Dioxopiperidin-3-yl)-1-oxo-2,3-dihydro-1H-isoindol-5-yl]piperazin-1-yl}butoxy)phenyl]piperazin-1-yl}-4-methyl-1H-indole-3-carbonitrile], in assay [1], half-maximal degradation (DC50) was put at 0.01 µM and the Dmax is 54%. Further, the DC50 in assay [2] is > 3 µM.
